Assay results taken from PubChem BioAssay (NCI).
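Five concentrations, 48 hours, 96-well plates. TGI is the concentration that stops growth completely.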 Peptide text beside a SMILES is read from it. * marks the point of attachment. X34 = O=C(c1ccc(-c2ccc(Cl)cc2Cl)o1)*

What was measured:
Experiment in all cases: DTP human tumour cell line panel, 48 h
CCRF-CEM leukemia = system: CCRF-CEM leukemia
UACC-257 melanoma = system: UACC-257 melanoma
NCI-H23 lung = system: NCI-H23 lung
DU-145 prostate = system: DU-145 prostate
EKVX NSCLC = system: EKVX NSCLC
SNB-19 CNS = system: SNB-19 CNS
HT29 colon = system: HT29 colon
SK-MEL-5 melanoma = system: SK-MEL-5 melanoma
M14 melanoma = system: M14 melanoma
NCI-H522 lung = system: NCI-H522 lung
SK-MEL-28 melanoma = system: SK-MEL-28 melanoma
786-0 renal = system: 786-0 renal
PC-3 prostate = system: PC-3 prostate
HL-60(TB) leukemia = system: HL-60(TB) leukemia
OVCAR-8 ovarian = system: OVCAR-8 ovarian
A549 NSCLC = system: A549 NSCLC
SK-OV-3 ovarian = system: SK-OV-3 ovarian
SN12C renal = system: SN12C renal
SR leukemia = system: SR leukemia

Compound: CC(C)CNCCc1ccccn1
- TGI (CCRF-CEM leukemia): > 100 µM
- TGI (UACC-257 melanoma): > 100 µM
- TGI (NCI-H23 lung): > 100 µM
- TGI (DU-145 prostate): > 100 µM
- TGI (EKVX NSCLC): > 100 µM
- TGI (SNB-19 CNS): > 100 µM
- TGI (HT29 colon): > 100 µM
- TGI (SK-MEL-5 melanoma): > 100 µM
- TGI (M14 melanoma): > 100 µM
- TGI (NCI-H522 lung): > 100 µM
- TGI (SK-MEL-28 melanoma): > 100 µM
- TGI (786-0 renal): > 100 µM
- TGI (PC-3 prostate): > 100 µM
- TGI (HL-60(TB) leukemia): > 100 µM
- TGI (OVCAR-8 ovarian): > 100 µM
- TGI (A549 NSCLC): > 100 µM
- TGI (SK-OV-3 ovarian): > 100 µM
- TGI (SN12C renal): > 100 µM

Compound: O=C1CCCCN1
- TGI (CCRF-CEM leukemia): > 1120 µM
- TGI (UACC-257 melanoma): > 1120 µM
- TGI (NCI-H23 lung): > 1120 µM
- TGI (EKVX NSCLC): > 350 µM
- TGI (SNB-19 CNS): > 1120 µM
- TGI (HT29 colon): > 1120 µM
- TGI (SK-MEL-5 melanoma): > 1120 µM
- TGI (NCI-H522 lung): > 1120 µM
- TGI (SK-MEL-28 melanoma): > 1120 µM
- TGI (HL-60(TB) leukemia): > 1120 µM
- TGI (OVCAR-8 ovarian): > 1120 µM
- TGI (A549 NSCLC): > 1120 µM
- TGI (SK-OV-3 ovarian): > 1120 µM
- TGI (SN12C renal): > 1120 µM

Compound: CC1=C[C@H]([C@H]2C=C(C)C(C(N)=O)=CN2Cc2c(Cl)cccc2Cl)N(Cc2c(Cl)cccc2Cl)C=C1C(N)=O
- TGI (CCRF-CEM leukemia): > 75 µM
- TGI (UACC-257 melanoma): > 75 µM
- TGI (NCI-H23 lung): > 75 µM
- TGI (DU-145 prostate): > 75 µM
- TGI (EKVX NSCLC): > 75 µM
- TGI (SNB-19 CNS): > 75 µM
- TGI (HT29 colon): > 75 µM
- TGI (SK-MEL-5 melanoma): > 75 µM
- TGI (M14 melanoma): > 75 µM
- TGI (NCI-H522 lung): > 75 µM
- TGI (SK-MEL-28 melanoma): > 75 µM
- TGI (786-0 renal): > 75 µM
- TGI (PC-3 prostate): > 75 µM
- TGI (SR leukemia): > 75 µM
- TGI (HL-60(TB) leukemia): > 75 µM
- TGI (OVCAR-8 ovarian): > 75 µM
- TGI (A549 NSCLC): > 75 µM
- TGI (SK-OV-3 ovarian): > 75 µM
- TGI (SN12C renal): > 75 µM

Compound: COc1ccc(C(=O)c2nc3ccccc3nc2N2CCN(c3ccccc3)CC2)cc1OC
- TGI (CCRF-CEM leukemia): > 100 µM
- TGI (UACC-257 melanoma): > 100 µM
- TGI (NCI-H23 lung): > 100 µM
- TGI (DU-145 prostate): > 100 µM
- TGI (EKVX NSCLC): > 100 µM
- TGI (SNB-19 CNS): > 100 µM
- TGI (HT29 colon): > 100 µM
- TGI (SK-MEL-5 melanoma): > 100 µM
- TGI (M14 melanoma): > 100 µM
- TGI (NCI-H522 lung): > 100 µM
- TGI (SK-MEL-28 melanoma): > 100 µM
- TGI (786-0 renal): > 100 µM
- TGI (PC-3 prostate): > 100 µM
- TGI (SR leukemia): > 100 µM
- TGI (HL-60(TB) leukemia): > 100 µM
- TGI (OVCAR-8 ovarian): > 100 µM
- TGI (A549 NSCLC): > 100 µM
- TGI (SK-OV-3 ovarian): > 100 µM

Compound: C1=CC=C2NCCc3cccc(c3)CCNC3=CC=CC=CC3=NCCCCCCN=C2C=C1
- TGI (CCRF-CEM leukemia): > 100 µM
- TGI (UACC-257 melanoma): 41.8 µM
- TGI (NCI-H23 lung): 48.3 µM
- TGI (EKVX NSCLC): > 100 µM
- TGI (SNB-19 CNS): > 100 µM
- TGI (HT29 colon): > 100 µM
- TGI (M14 melanoma): 29.8 µM
- TGI (NCI-H522 lung): 47.2 µM
- TGI (SR leukemia): 82.4 µM
- TGI (HL-60(TB) leukemia): 20.9 µM
- TGI (OVCAR-8 ovarian): 61.6 µM
- TGI (A549 NSCLC): > 100 µM
- TGI (SK-OV-3 ovarian): 70.6 µM
- TGI (SN12C renal): > 100 µM

Compound: COC(=O)C(CC(C)C)NC(=O)C(Cc1ccccc1)NC(=O)C1CCCN1C(=O)C(CO)NC(=O)c1ccc(-c2ccc(Cl)cc2Cl)o1 (configuration not stated) (X34-SPFL-OMe; configuration not given here)
- TGI (CCRF-CEM leukemia): > 100 µM
- TGI (UACC-257 melanoma): 57.8 µM
- TGI (NCI-H23 lung): 97.6 µM
- TGI (DU-145 prostate): > 100 µM
- TGI (SNB-19 CNS): > 100 µM
- TGI (HT29 colon): 40.7 µM
- TGI (SK-MEL-5 melanoma): 35.2 µM
- TGI (M14 melanoma): 49 µM
- TGI (NCI-H522 lung): > 100 µM
- TGI (SK-MEL-28 melanoma): > 100 µM
- TGI (786-0 renal): 56.9 µM
- TGI (PC-3 prostate): > 100 µM
- TGI (HL-60(TB) leukemia): 69.6 µM
- TGI (OVCAR-8 ovarian): > 100 µM
- TGI (A549 NSCLC): 91.2 µM
- TGI (SK-OV-3 ovarian): 25.7 µM
- TGI (SN12C renal): 89.9 µM

Compound: CC(=O)OCCCCN1C(=O)CSc2ccccc21
- TGI (CCRF-CEM leukemia): > 100 µM
- TGI (UACC-257 melanoma): > 100 µM
- TGI (DU-145 prostate): > 100 µM
- TGI (EKVX NSCLC): > 100 µM
- TGI (SNB-19 CNS): > 100 µM
- TGI (SK-MEL-5 melanoma): > 100 µM
- TGI (NCI-H522 lung): > 100 µM
- TGI (SK-MEL-28 melanoma): > 100 µM
- TGI (PC-3 prostate): > 100 µM
- TGI (SR leukemia): > 100 µM
- TGI (HL-60(TB) leukemia): > 100 µM
- TGI (A549 NSCLC): > 100 µM
- TGI (SK-OV-3 ovarian): > 100 µM
- TGI (SN12C renal): > 100 µM

Compound: COc1nc2ccc(CNc3ccc(C(=O)NC(CCC(=O)O)C(=O)O)cc3)cc2nc1OC (configuration not stated)
- TGI (CCRF-CEM leukemia): > 100 µM
- TGI (UACC-257 melanoma): > 100 µM
- TGI (NCI-H23 lung): > 100 µM
- TGI (DU-145 prostate): > 100 µM
- TGI (EKVX NSCLC): > 100 µM
- TGI (SNB-19 CNS): > 100 µM
- TGI (HT29 colon): > 100 µM
- TGI (SK-MEL-5 melanoma): > 100 µM
- TGI (M14 melanoma): > 100 µM
- TGI (NCI-H522 lung): > 100 µM
- TGI (SK-MEL-28 melanoma): > 100 µM
- TGI (PC-3 prostate): > 100 µM
- TGI (SR leukemia): > 100 µM
- TGI (HL-60(TB) leukemia): > 100 µM
- TGI (OVCAR-8 ovarian): > 100 µM
- TGI (A549 NSCLC): > 100 µM
- TGI (SK-OV-3 ovarian): > 100 µM
- TGI (SN12C renal): > 100 µM

Compound: CCCCC(=O)c1c(O)ccc2c(C)cc(=O)oc12
- TGI (CCRF-CEM leukemia): > 100 µM
- TGI (UACC-257 melanoma): > 100 µM
- TGI (NCI-H23 lung): > 100 µM
- TGI (DU-145 prostate): > 100 µM
- TGI (EKVX NSCLC): > 100 µM
- TGI (SNB-19 CNS): > 100 µM
- TGI (HT29 colon): > 100 µM
- TGI (SK-MEL-5 melanoma): > 100 µM
- TGI (M14 melanoma): > 100 µM
- TGI (NCI-H522 lung): > 100 µM
- TGI (SK-MEL-28 melanoma): > 100 µM
- TGI (786-0 renal): > 100 µM
- TGI (PC-3 prostate): > 100 µM
- TGI (SR leukemia): > 100 µM
- TGI (HL-60(TB) leukemia): > 100 µM
- TGI (OVCAR-8 ovarian): > 100 µM
- TGI (A549 NSCLC): > 100 µM
- TGI (SN12C renal): > 100 µM

Compound: CN1c2c(nc(N)[nH]c2=O)NCC1CCNc1ccc(C(=O)NC(CCC(=O)O)C(=O)O)cc1 (configuration not stated)
- TGI (CCRF-CEM leukemia): 1000 µM
- TGI (UACC-257 melanoma): 2360 µM
- TGI (NCI-H23 lung): 3630 µM
- TGI (DU-145 prostate): 2660 µM
- TGI (EKVX NSCLC): 2720 µM
- TGI (SNB-19 CNS): 3250 µM
- TGI (HT29 colon): 1310 µM
- TGI (SK-MEL-5 melanoma): 2470 µM
- TGI (M14 melanoma): 1770 µM
- TGI (NCI-H522 lung): 2470 µM
- TGI (SK-MEL-28 melanoma): 2290 µM
- TGI (786-0 renal): 1840 µM
- TGI (PC-3 prostate): 1750 µM
- TGI (SR leukemia): 2530 µM
- TGI (HL-60(TB) leukemia): 2250 µM
- TGI (OVCAR-8 ovarian): 2640 µM
- TGI (A549 NSCLC): 2620 µM
- TGI (SK-OV-3 ovarian): 2350 µM
- TGI (SN12C renal): 2350 µM

Compound: CC[C@@H]1CSC(/C=C/C2OC3OC(C)(C)OC3C3OC(C)(C)OC23)=N1 (some centres not stated)
- TGI (UACC-257 melanoma): 26.4 µM
- TGI (NCI-H23 lung): 23.1 µM
- TGI (DU-145 prostate): 5.19 µM
- TGI (EKVX NSCLC): 25.6 µM
- TGI (SNB-19 CNS): 54.8 µM
- TGI (HT29 colon): 15.9 µM
- TGI (SK-MEL-5 melanoma): 20 µM
- TGI (M14 melanoma): 22.9 µM
- TGI (NCI-H522 lung): 12.1 µM
- TGI (SK-MEL-28 melanoma): 34.7 µM
- TGI (786-0 renal): 15.9 µM
- TGI (PC-3 prostate): 26 µM
- TGI (SR leukemia): 37.4 µM
- TGI (HL-60(TB) leukemia): 5.67 µM
- TGI (OVCAR-8 ovarian): 23.8 µM
- TGI (A549 NSCLC): 49.6 µM
- TGI (SK-OV-3 ovarian): 91.4 µM
- TGI (SN12C renal): 23.9 µM
